Measurements as given in paper PMC7284918, “In-Depth Characterization of EpiIntestinal Microtissue as a Model for Intestinal Drug Absorption and Metabolism in Human” (Pharmaceutics, 2020).
Like-named read-outs stand apart in the source and are kept apart here. Marks after values point to notes of the source that are not given here.

Tests used:
[1] = test system: EpiIntestinal microtissues; test: Intestinal first-pass availability in EpiIntestinal microtissues; assay type: in vitro ADME, human
Procedure: (§1) Compounds were diluted in culture media to a final concentration of 10 µM and added to the apical (donor) compartment (total volume: 100 µL for EpiIntestinal and 200 µL for Caco-2). After the incubation at 37 °C for 2, 4, 6, and 24 h, samples (50 µL) were taken from the basal (receiver) compartment (total volume: 5000 µL for EpiIntestinal and 800 µL for Caco-2). After the last timepoint, samples from the donor compartments and the cell lysates were also collected. Compound concentrations in the samples were determined by HPLC-MS/MS (Section 2.3).
(§2) GI first-pass availability of the tested compounds was expressed as fraction (%) of the total amount of a compound added to the donor compartment recovered in the receiver compartment.

[2] = test system: Caco-2 cells; test: Intestinal first-pass availability in Caco-2; assay type: in vitro ADME, human; conditions: Caco-2
Procedure: as §1, §2

[3] = Clinical pharmacokinetic data and calculated Fa × Fg in human; assay type: in vivo; conditions: calculated from clinical pharmacokinetic data (Section 2.8, Table 2)
From the text: A set of 12 marketed drugs are selected for the evaluation of EpiIntestinal microtissues.

[4] = human, cited from earlier work
[5] = target: T1, CYP1A2 (Homo sapiens, UniProt P05177)
T1 sequence (P05177 1-516): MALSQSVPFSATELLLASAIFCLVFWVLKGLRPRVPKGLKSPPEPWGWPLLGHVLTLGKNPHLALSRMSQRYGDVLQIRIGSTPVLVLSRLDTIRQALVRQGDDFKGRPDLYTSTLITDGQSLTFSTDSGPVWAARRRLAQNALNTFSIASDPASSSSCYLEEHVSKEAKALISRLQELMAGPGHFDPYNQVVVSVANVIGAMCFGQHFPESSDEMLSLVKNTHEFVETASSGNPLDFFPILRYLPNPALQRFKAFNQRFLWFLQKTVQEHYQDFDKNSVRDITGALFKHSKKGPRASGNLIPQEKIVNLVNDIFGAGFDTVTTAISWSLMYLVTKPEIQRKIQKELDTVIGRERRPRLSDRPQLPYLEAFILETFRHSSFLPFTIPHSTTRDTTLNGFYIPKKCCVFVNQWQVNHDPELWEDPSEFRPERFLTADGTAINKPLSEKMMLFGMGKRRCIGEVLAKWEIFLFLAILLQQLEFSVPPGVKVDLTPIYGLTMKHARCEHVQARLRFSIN
Procedure: (§3) For measurements of DME activities in EpiIntestinal microtissues and Caco-2 cells, both were cultured in 96-well Transwell inserts. Drugs (Table 1) were dissolved in the respective solvent at 200x concentration and diluted in a pre-warmed transport buffer. Diluted substrate solution was applied to the apical (100 µL) and basal (250 µL) compartment of the Transwell and incubated at 37 °C and 5% CO2 and 60 rpm continuous shaking. DME activities were determined by monitoring metabolite formation in basal compartment over time (0, 0.5, 1, 2, 3 and 4 h) with LC-MS/MS. […] Chromatographic separation of samples was performed on YMC Triart C18 (1.9 µm, 30 × 2 mm; YMC Europe, Dinslaken, Germany) LC analytical column. Quantification of all metabolites listed in Table 1 was achieved by the use of calibration curves for the individual metabolites with appropriate concentration ranges.
(§4) A total of 10 µL of the incubation sample were diluted with 90 µL of water containing 10–20% ACN or methanol, 0.1% formic acid and the respective internal standard. To analyze the intracellular metabolite concentration, cells on Transwell inserts were washed twice with ice-cold PBS and stored at −80 °C for 20 min. Afterwards, 150 µL 50% ACN diluted with transport buffer was added to the cells and incubated at room temperature for 30 min. Cell lysate was transferred to a fresh 96-well plate and centrifuged at 4 °C, 4000 rpm for 10 min. Subsequently, 10 µL of the supernatant were diluted with 90 µl water containing 10–20% ACN or methanol, 0.1% formic acid and the respective internal standard. A total of 2 µL sample was injected into the LC-MS/MS system operated with an electrospray ionization source.

[6] = target: T1, CYP1A2; remark: listed apart in the source
Procedure: as §3
A total of 10 µL of the incubation sample were diluted with 90 µL of water containing 10–20% ACN or methanol, 0.1% formic acid and the respective internal standard. To analyze the intracellular metabolite concentration, cells on Transwell inserts were washed twice with ice-cold PBS and stored at −80 °C for 20 min. Afterwards, 150 µL 50% ACN diluted with transport buffer was added to the cells and incubated at room temperature for 30 min. […]

[7] = test system: human intestinal mucosa (HIM); test: Metabolite identification in cryopreserved human intestinal mucosa (HIM); assay type: in vitro ADME; conditions: 10 µM, peak areas at end of incubation
Procedure: (§5) Raloxifene or ezetimibe (10 µM) in culture media was added to the apical compartment of EpiIntestinal microtissues or incubated with cryopreserved human intestinal mucosa (HIM). […] Analysis was performed on a LC-MS system containing a Vanquish UPLC (ThermoFisher Scientific, San Jose, CA, USA) coupled to an Orbitrap FusionTribrid high resolution mass spectrometer (ThermoFisher Scientific). Structure elucidation was based on exact mass measurements in combination with the interpretation of fragment spectra.

[8] = test system: EpiIntestinal microtissues; test: Metabolite identification in EpiIntestinal microtissues; assay type: in vitro ADME, human; conditions: 10 µM, peak areas at end of incubation
Procedure: as §5

[9] = Intestinal first-pass availability in EpiIntestinal microtissues; assay type: in vitro ADME, human; conditions: human, 10 µM apical
Procedure: as §1, §2

[10] = test system: CYP3A4; conditions: Caco-2
Procedure: as §3, §4

[11] = in vitro; conditions: human, plasma
From the text: Blood CLb can be converted from plasma clearance CLp with the blood-to-plasma ratio RB: CLb=CLp/RB

[12] = Intestinal first-pass availability in Caco-2; assay type: in vitro ADME, human; conditions: human, Caco-2, Caco-2, 10 µM apical, read-out: Recovery in basal/receiver compartment after 24 h
Procedure: as §1, §2

[13] = test system: Caco-2 cells; test: Bidirectional permeability assay in Caco-2; assay type: in vitro ADME, human; conditions: Ko-143 3 µM, zosuquidar 5 µM
[14] = test system: EpiIntestinal microtissues; test: Bidirectional permeability assay in EpiIntestinal microtissues; assay type: in vitro ADME, human; conditions: Ko-143 3 µM, zosuquidar 5 µM
Procedure: Caco-2 cells were obtained from Leibniz Institute DSMZ-German Collection of Microorganisms and Cell Cultures (Braunschweig, Germany) and cultured in DMEM containing 10% FCS, 1% NEAA, 2 mM Glutamin, 100 U/mL Penicillin and 100 µg/mL Streptomycin. […] EpiIntestinal microtissues were obtained from MatTek (Bratislav, Slovakia) and cultured according to the manufacturer’s instruction (24-well format for bidirectional permeability assays and GI firstpass availability assays and 96-well format for screening of DME activities).
Bidirectional permeability assays were performed as described previously. […] In indicated experiments, inhibitors were added to both compartments. Cells were incubated with the compounds for up to 2 h. Samples from the opposite compartment were taken at different timepoints. […] Prior to bioanalysis samples were spiked with internal standard solution and diluted with acetonitrile (ACN) for protein precipitation. Measurement was operated in multiple reaction monitoring (MRM) mode. Quantification was performed using external calibration. Apparent permeability coefficients in the apical to basal direction (Papp,AB) and in the basal to apical direction (Papp,BA) and efflux were calculated as follows Papp,AB=QAB/(C0×s×t) Papp,BA=QBA/(C0×s×t) Efflux=Papp,BA/Papp,AB where Q is the amount of compound recovered in the receiver compartment after the incubation time t, C0 the initial compound concentration given to the donor compartment, and s the surface area of the Transwell inserts. Efflux ratio is calculated as the quotient of Papp,BA to Papp,AB. […] In addition, Transepithelial electrical resistance (TEER) values are measured for each plate before the permeability assay and total recovery in donor and receiver compartments was determined for each compound. All these parameters (efflux of apafant, Papp values of the low permeable compound, TEER values, and total recovery) are used to ensure the quality of the assays.

[15] = clinical, ref Prescription information at fda.gov
[16] = EpiIntestinal microtissues, GI firstpass availability, read-out: Recovery in Basal Comp. @ 24h (%)

COc1ccc(CCN2CCC(Nc3nc4ccccc4n3Cc3ccc(F)cc3)CC2)cc1 [Astemizole]
Availability in the receiver compartment on co-incubation with CYP2J2 inhibitor ([1]; 10 µM apical, Ebastein (50 µM)): increased
Availability in the receiver compartment on co-incubation with CYP2J2 inhibitor ([2]; 10 µM apical, Ebastein (50 µM)): increased

CCN(CC)CC#CCOC(=O)C(O)(c1ccccc1)C1CCCCC1 (centres unmarked) [Oxybutynin]
Fa × Fg in Human (%) [3]: 9%
F (total oral availability) ([4]; clinical): 0.06 [8]
fe (fraction of renal excretion) [4, 15]: 0 *
CLp (plasma clearance) ([4]; in vivo): 5.1 [15] mL/min/kg

COC(=O)C1=C(C)NC(C)=C(C(=O)OC)C1c1ccccc1[N+](=O)[O-] [Nifedipine]
fe (fraction of renal excretion) ([4]; in vivo): 0 [16]

CCOc1ccc(NC(C)=O)cc1 [Phenacetin]
Intracellular Metabolite (% of Total) [5]: BLQ
Enzyme Activities Mean/SD ([5]; human): 123.1/4.8 pmol/h/cm^2
Intracellular Metabolite (% of Total) [6]: BLQ
Enzyme Activities Mean/SD ([6]; human): 17.4/3.0 pmol/h/cm^2

O=C(c1ccc(OCCN2CCCCC2)cc1)c1c(-c2ccc(O)cc2)sc2cc(O)ccc12 [Raloxifene]
Parent (% of parent drug at T0) [7]: 33.2 % of parent drug at T0
Parent (% of parent drug at T0) [8]: 2.4 % of parent drug at T0

CCc1c2c(nc3ccc(OC(=O)N4CCC(N5CCCCC5)CC4)cc13)-c1cc3c(c(=O)n1C2)COC(=O)[C@]3(O)CC [Irinotecan]
recovery at 24 h, 10 µM [9, 16]: 62%

Cc1ncc2n1-c1ccc(Cl)cc1C(c1ccccc1F)=NC2 [Midazolam]
recovery at 24 h, 10 µM ([9]; with CYP3A4 inhibitor CYP3cide (1 µM), read-out: Recovery in basal/receiver compartment after 24 h): 75.9%
recovery at 24 h, 10 µM [9, 16]: 47%
recovery at 24 h, 10 µM ([9]; EpiIntestinal microtissues, no inhibitor, read-out: Recovery in basal/receiver compartment after 24 h): 46.7%
1-hydroxymidazolam (CYP3A4-selective metabolite) detected ([1]; midazolam 10 µM apical, no inhibitor): substantial amount
Intracellular Metabolite (% of Total) ([10]; CYP3A4/Midazolam, metabolite 1-OH-Midazolam): BLQ
Enzyme Activities Mean/SD ([10]; CYP3A4/Midazolam, rate of 1-OH-Midazolam formation in supernatant): BLQ
blood plasma ratio [11]: 0.64
Fa × Fg in Human (%) [3]: 59%
1-hydroxymidazolam (CYP3A4-selective metabolite) detected ([2]; midazolam 10 µM apical): negligible amount
recovery at 24 h, 10 µM ([12]; no inhibitor): 81%
recovery at 24 h, 10 µM ([12]; with CYP3A4 inhibitor CYP3cide (1 µM)): 87.9%
F (total oral availability) ([4]; clinical): 0.4 [8]
fe (fraction of renal excretion) ([4]; clinical): 0 [16]

CC(C)c1c(C(=O)Nc2ccccc2)c(-c2ccccc2)c(-c2ccc(F)cc2)n1CC[C@@H](O)C[C@@H](O)CC(=O)O [Atorvastatin]
recovery at 24 h, 10 µM [9, 16]: 43%

O[C@@H](COc1cccc2ncccc12)CN1CCN([C@@H]2c3ccccc3[C@@H]3[C@H](c4ccccc42)C3(F)F)CC1 [zosuquidar]
Effect of inhibitor on the efflux of rosuvastatin [13]: minor effect
Effect of inhibitor on the efflux of rosuvastatin [14]: minor effect

COc1ccc2c3c([nH]c2c1)[C@H](CC(C)C)N1C(=O)[C@H](CCC(=O)OC(C)(C)C)NC(=O)[C@@H]1C3 [Ko-143]
Effect of inhibitor on the efflux of rosuvastatin [13]: strongly reduced
Effect of inhibitor on the efflux of rosuvastatin [14]: strongly reduced

CC(C)NCC(O)COc1ccc(CC(N)=O)cc1 (centres unmarked) [Atenolol]
recovery at 24 h, 10 µM [9, 16]: 86%
Fa × Fg in Human (%) [3]: 50%

O=C1[C@H](CC[C@H](O)c2ccc(F)cc2)[C@@H](c2ccc(O)cc2)N1c1ccc(F)cc1 [Ezetimibe]
Parent (% of parent drug at T0) [7]: 40.3 % of parent drug at T0
Parent (% of parent drug at T0) [8]: 8.4 % of parent drug at T0

CC(C)(C)NC(=O)[C@@H]1CN(Cc2cccnc2)CCN1C[C@@H](O)C[C@@H](Cc1ccccc1)C(=O)N[C@H]1c2ccccc2C[C@H]1O [Indinavir]
recovery at 24 h, 10 µM [9, 16]: 53%
Fa × Fg in Human (%) [3]: 100%
F (total oral availability) ([4]; clinical): 0.6 [8]
fe (fraction of renal excretion) ([4]; clinical): 0.085 [16]

CCOC(=O)C1=C(C)NC(C)=C(C(=O)OC)C1c1cccc(Cl)c1Cl (centres unmarked) [Felodipine]
recovery at 24 h, 10 µM [9, 16]: 47%

CC(C)(C)NC(=O)[C@@H]1C[C@@H]2CCCC[C@@H]2CN1C[C@@H](O)[C@H](Cc1ccccc1)NC(=O)[C@H](CC(N)=O)NC(=O)c1ccc2ccccc2n1 [Saquinavir]
recovery at 24 h, 10 µM [9, 16]: 18%
Fa × Fg in Human (%) [3]: 25%
F (total oral availability) ([4]; clinical): 0.04 [8]
fe (fraction of renal excretion) [4, 15]: 0.01 *

C[C@]12CC[C@H]3[C@@H](CCC4=CC(=O)CC[C@@]43C)[C@@H]1CC[C@@H]2O [Testosterone]
Intracellular Metabolite (% of Total) ([10]; CYP3A4/Testosterone, metabolite 6β-OH-Testosterone): BLQ

O=C1CC2(CCCC2)CC(=O)N1CCCCN1CCN(c2ncccn2)CC1 [Buspirone]
recovery at 24 h, 10 µM [9, 16]: 60%
Fa × Fg in Human (%) [3]: 70%
CLp (plasma clearance) ([4]; clinical): 28.3 [8] mL/min/kg
fe (fraction of renal excretion) ([4]; clinical): 0.45 [19]
